# Measured values as given in patent publication US20150352034A1, “Personal Care Products Containing Microalgae or Extracts Thereof” (Solazyme, Inc., priority 2014, published 2015).
# Tests used:
# [1] = test system: procollagen synthesis in fibroblasts; assay: Type I Collagen Assay (type I C-peptide ELISA, fibroblast culture medium); type: cell-based; conditions: 48 h
# Procedure: (§1) The type I C-peptide fragment was measured because procollagen, a precursor to mature collagen, is cleaved in collagen and type I C-peptide fragments in a 1:1 ratio. By measuring the amount of type I C-peptide fragments in the tissue medium, collagen production was measured. Elastin was measured directly from the cell culture medium. Hyaluronic acid was measured in the tissue culture media. All measurements were performed using an ELISA based method.
# (§2) Powder materials were prepared by combining 1 gram of the powder material with either 10 ml ultrapure water or 10 ml of DMSO. The mixtures were incubated for one hour at room temperature on a rocking platform to saturate the extraction medium with the test material. The mixture was then centrifuged to separate the saturated extract solution from the undissolved solid materials. The oil based materials were prepared as a stock solution in DMSO and then diluted into the culture media such that the final concentration of DMSO was 1%. A 1% DMSO control was included to account for any effect the solvent might have when evaluating the effect of the oils or DMSO prepared powders. […]
# A series of type I C-peptide standards were prepared ranging from 0 ng/ml to 640 ng/ml for the procollagen assay. […] After the incubation 100 μl of stop solution (1 N sulfuric acid) was added to each well and the plate was read using a microplate reader at 450 nm.
# [2] = test system: hyaluronic acid synthesis in fibroblasts; assay: Hyaluronic Acid Assay (ELISA, fibroblast culture medium); type: cell-based
# Procedure: as §1
# Powder materials were prepared by combining 1 gram of the powder material with either 10 ml ultrapure water or 10 ml of DMSO. The mixtures were incubated for one hour at room temperature on a rocking platform to saturate the extraction medium with the test material. The mixture was then centrifuged to separate the saturated extract solution from the undissolved solid materials. The oil based materials were prepared as a stock solution in DMSO and then diluted into the culture media such that the final concentration of DMSO was 1%. A 1% DMSO control was included to account for any effect the solvent might have when evaluating the effect of the oils or DMSO prepared powders.
# The fibroblast cell culture was prepared by seeding fibroblasts into the individuals wells of a 24-well plate in 0.5 ml of Fibroblast Growth Media (FGM) and incubated overnight at 37±2° C. and at 5±1% CO2. The media was removed via aspiration to eliminate non-adherent cells and replaced with 0.5 ml of fresh FGM. The medium was changed every 48 to 72 hours until the cells growth reached confluency. Once confluent, the cells were treated for 24 hours with DMEM supplemented with 1.5% FBS to wash out any growth factors present in the normal culture media.
# The prepared fibroblast cell cultures were then treated with the prepared test materials at the aforementioned concentrations dissolved in FGM with 1.5% FBS. TGF-B at a concentration of 50 ng/ml was used as a positive control for collagen and elastin, and dibutyrl cAMP at a concentration of 0.1 mM was used as a positive control for hyaluronic acid. Untreated cells received DMEM with 1.5% FBS. The cells were incubated for 48 hours and then either frozen or assayed immediately. Materials were tested in triplicate.
# A series of hyaluronic acid standards was prepared ranging from 50 ng/ml to 3,200 ng/ml. Next, 100 μl of each standard (in duplicate) and sample was transferred to a well in an incubation plate. After adding 50 μl of detection solution to each well (except the reagent blank wells) the plate was incubated for 1±0.25 hour at 37±2° C. […] After this final incubation 50 μl of stop solution was added to each well and the absorbance of the plate was measured at 405 nm using a plate reader.
# [3] = test system: elastin synthesis in fibroblasts; assay: Elastin Assay (ELISA, fibroblast culture medium); type: cell-based; conditions: 48 h
# Procedure: as §1, §2
# A set of alpha-elastin standards was generated ranging from 0 to 100 ng/ml. […] After the final incubation, the plate was read at 460 nm using a plate reader.
# MatTek's EpiDerm tissue = assay: UVB protection assay, MTT tissue viability; type: cell-based, human; conditions: 300 mJ/cm^2 UVB, then 1 mM, 100 μl topically for 24 hours; in % (unit assumed)
# Procedure: MatTek's EpiDerm tissue, a skin model that consists of normal human-derived epidermal keratinocytes cultured to form a multilayered, highly differentiated model of the human epidermis, was used to measure changes in tissue viability. The tissues were exposed to 300 mJ/cm^2 of UVB radiation and subsequently topically treated with the aforementioned test materials over a period of 24 hours. Materials were tested for their abilities to either maintain tissue viability after UVB exposure or aid in the recovery of tissue damaged by UVB radiation. […] The MTT analysis involved a colorimetric analysis of tissue metabolic activity, the increased presence of color indicating the presence of metabolically-active living cells. Reduction of MTT by mitochondria in viable cells results in purple formazin crystals; the intensity of the purple color is directly proportional to metabolically active cells in the tissue. The tissues were stored at 4° C. until used. […] One gram of WAF was mixed with 10 ml of water for one hour at room temperature. The WAF-water mixture was then centrifuged for 5 minutes to pellet any undissolved material and the supernatant was used for topical application. The Sample B, Sample F, and Sample A were applied topically without any further processing. […] Reduced MTT was subsequently extracted from the tissues and colorimetrically analyzed at 540 nm to determine tissue viability.
# [4] = test system: thymine dimers in genomic DNA of MatTek's EpiDerm tissue; assay: Thymine dimer formation after UVB; type: cell-based, human; conditions: 300 mJ/cm^2 UVB, then 1 mM, 100 μl topically for 24 hours
# Procedure: This method was designed to evaluate changes in tissue DNA thymine dimer content after exposure to UVB. The testing system used for this assay was MatTek's EpiDerm tissue, a skin model that consists of normal human-derived epidermal keratinocytes cultured to form a multilayered, highly differentiated model of the human epidermis. For this study, the tissues were exposed to UVB (300 mJ/cm^2) and then treated topically for 24 hours with the test material. Following the treatment the DNA was extracted from the EpiDerm tissues and assayed for thymine dimer content. For the assay, samples of the DNA were immobilized on a solid membrane support and incubated with an antibody that recognizes thymine dimers in double stranded DNA. The primary antibody was then detected using a secondary antibody conjugated to a fluorescent dye. The membrane was then scanned using an excitation laser and emission filter combination appropriate for the fluorescent dye. With this method, the fluorescence intensity of each sample is proportional to the amount of the thymine dimers present in the sample. […] UVB lamp intensity was measured using a UVX radiometer with a probe specific for UVB (detects 260-360 nm, max absorbance at 310 nm, calibrated at 310 nm) to determine exposure times required for the appropriate UVB dose. […] Extracted DNA was quantified via a fluorometric assay. […]
compound,measurement,setting,value
"CCCC(=O)Nc1ncnc2c1ncn2[C@@H]1O[C@@H]2COP(=O)(O)O[C@H]2[C@H]1OC(=O)CCC [dBcAMP, dibutyrl cAMP]",Type I C-Peptide,[1]; 0.1 mM,3438 ± 277 ng/mL
same,Hyaluronic Acid,"[2]; Table Va, 0.1 mM, 48 h",494 ± 51 ng/mL
same,Hyaluronic Acid,"[2]; Table Vb, 0.1 mM",547 ± 31 ng/mL
same,Elastin,[3]; 0.1 mM,43 ± 16 ng/mL
TGF-B,Type I C-Peptide,[1]; 50 ng/ml,5282 ± 178 ng/mL
same,Hyaluronic Acid,"[2]; Table Va, 50 ng/ml, 48 h",260 ± 34 ng/mL
same,Hyaluronic Acid,"[2]; Table Vb, 50 ng/ml",528 ± 96 ng/mL
same,Elastin,[3]; 50 ng/ml,178 ± 6 ng/mL
"Cc1c(C)c2c(c(C)c1O)CCC(C)(C(=O)O)O2 (stereo not shown) [Trolox, 6-hydroxy-2,5,7,8-tetramethylchroman-2-carboxylic acid]",Viability,MatTek's EpiDerm tissue,98 ± 5.6
same,Thymine Dimer Formation,[4],296.5 ± 12.2 ng/mL
